Source: patent EP4563573A1, “COMPOUND, AND PREPARATION METHOD THEREFOR AND USE THEREOF IN PREPARATION OF SEH INHIBITOR AND PPARS AGONIST” (Shenyang Pharmaceutical University, priority 2023, dated 2024)
Like-named read-outs stand apart in the source and are kept apart here.

What was measured:
[1] = Plasma protein binding rate (equilibrium dialysis); settings: rat
Description: The plasma protein binding rate (%PPB) of SD rats was measured by classical equilibrium dialysis apparatus.

murine sEH (MsEH) = molecular target: T1, murine sEH (MsEH) (Mus musculus, UniProt P34914); experiment: biochemical
T1 sequence (P34914 1-554): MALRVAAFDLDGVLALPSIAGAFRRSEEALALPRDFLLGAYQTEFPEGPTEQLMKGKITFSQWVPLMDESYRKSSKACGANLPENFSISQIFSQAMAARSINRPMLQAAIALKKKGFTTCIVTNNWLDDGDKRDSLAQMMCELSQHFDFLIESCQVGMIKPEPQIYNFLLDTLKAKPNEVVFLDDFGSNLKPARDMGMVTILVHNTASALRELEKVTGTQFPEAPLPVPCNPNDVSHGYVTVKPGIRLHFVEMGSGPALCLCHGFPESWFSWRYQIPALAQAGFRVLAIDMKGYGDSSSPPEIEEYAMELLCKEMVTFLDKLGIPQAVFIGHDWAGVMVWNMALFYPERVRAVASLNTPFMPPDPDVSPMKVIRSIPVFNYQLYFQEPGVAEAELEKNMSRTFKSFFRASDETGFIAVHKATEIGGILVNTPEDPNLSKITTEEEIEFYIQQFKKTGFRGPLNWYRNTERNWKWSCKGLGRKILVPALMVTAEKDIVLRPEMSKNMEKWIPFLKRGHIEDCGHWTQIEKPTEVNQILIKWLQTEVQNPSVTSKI
Description: (§1) Detection principle: a specific substrate, (3-phenyl-oxy)-acetic acid cyano-(6-methoxy-naphthalen-2-yl) methyl ester, namely PHOME, is non-fluorescent but can be hydrolyzed under the action of sEH enzyme to generate a product 6-methoxy-2-naphthaldehyde. […] Based on the above principle, the inhibition rates of samples with different concentrations were calculated compared with the positive control group. The IC50 value of the compound was calculated based on the inhibition rate and concentration using SPSS 20 software.
(§2) PHOME solution: 0.79 mg PHOME was dissolved in 106 µL DMSO to obtain a 20 mM PHOME solution, which was diluted to 1/3 mM with Tris-HCl buffer when used.
(§3) sEH solution: sEH (5 mg/mL) stock solution was stored in a -80°C refrigerator and diluted to 4 µg/mL with 25 mM Tris-HCl buffer when used.
(§4) A sample powder to be tested was dissolved in DMSO to a 20 mM solution, stored in a - 20°C refrigerator for later use, and diluted with Tris-HCl buffer to the corresponding concentration when used.
(§5) Experimental design: solvent group, 100% activity group (A), inhibitor group (B), positive control group (C), as shown in Table 1.
(§6) Three replicate wells were set for each sample, and the average of the three replicate wells was the fluorescence value (F) of the compound to be tested. […] The IC50 value of the compound was calculated based on the inhibition rate and concentration using SPSS 20 software.
(§7) The activity of the compounds was evaluated using a biochemical method with [cyano-(6-methoxynaphthalen-2-yl)methyl] 2-(3-phenyloxiran-2-yl)acetate (PHOME) as a substrate using recombinant human sEH (HsEH) and murine sEH (MsEH).

[2] = system: CD60 diet + streptozotocin-induced diabetes; experiment: CD60 feed + streptozotocin-induced diabetes model; type: in vivo, male C57BL/6 mice; settings: SP compounds 30 and 90 mg/kg; pioglitazone 3 mg/kg
Description: Diabetes is a chronic metabolic disease characterized by elevated blood glucose, and its incidence has been increasing over the past few decades. There is no desirable therapeutic drug at present, and the research on drugs for the treatment of diabetes and its related complications such as diabetic pain is highly urgent. […] Compared with the Control group, ****P<0.0001, ***P<0.001, **P<0.01 and *P<0.05.

LPS-induced sepsis model = experiment: LPS-induced sepsis model; type: in vivo, Male C57BL/6 mice; settings: LPS 25 mg/kg i.p., administration 4 h after modeling, twice at 8 h interval, n=7
Description: The drug was administered twice, with an interval of 8 h between administrations.

[3] = Stability of liver microsomes; settings: for Average concentration in microsomal buffer: Rat; for half-life: rat, microsomes
Description: Table 5 Average concentration of SP-B07 in microsomal buffer at different time points (ng/mL)

[4] = molecular target: T2, recombinant human sEH (HsEH) (Homo sapiens, UniProt P34913)
T2 sequence (P34913 1-555): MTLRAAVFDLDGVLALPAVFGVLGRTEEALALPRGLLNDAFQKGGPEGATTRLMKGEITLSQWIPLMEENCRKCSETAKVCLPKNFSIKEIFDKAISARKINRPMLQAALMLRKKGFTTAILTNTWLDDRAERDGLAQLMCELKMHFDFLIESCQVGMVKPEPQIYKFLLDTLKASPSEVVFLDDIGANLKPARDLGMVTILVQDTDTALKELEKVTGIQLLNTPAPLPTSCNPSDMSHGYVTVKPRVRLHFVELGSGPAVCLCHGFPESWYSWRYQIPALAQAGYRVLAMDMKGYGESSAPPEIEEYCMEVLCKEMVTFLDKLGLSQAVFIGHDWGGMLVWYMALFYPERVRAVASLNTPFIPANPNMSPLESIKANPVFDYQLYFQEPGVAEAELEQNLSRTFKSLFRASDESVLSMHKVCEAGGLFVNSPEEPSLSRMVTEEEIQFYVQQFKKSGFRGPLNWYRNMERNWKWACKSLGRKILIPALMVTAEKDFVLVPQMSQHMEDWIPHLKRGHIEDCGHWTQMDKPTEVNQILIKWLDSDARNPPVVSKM
Description: as §1, §2, §3, §4, §5, §6, §7

[5] = Pharmacokinetics after intravenous and oral administration
Description: Blood levels were measured within 8 hours after oral administration. […] Table 7 PK of SP-B07 after intravenous and oral administration in rats (n=3)

PPARγ = molecular target: T3, PPARγ (Homo sapiens, UniProt P37231); experiment: PPARγ agonist activity test (luciferase reporter gene); type: cell-based
T3 sequence (P37231 204-505): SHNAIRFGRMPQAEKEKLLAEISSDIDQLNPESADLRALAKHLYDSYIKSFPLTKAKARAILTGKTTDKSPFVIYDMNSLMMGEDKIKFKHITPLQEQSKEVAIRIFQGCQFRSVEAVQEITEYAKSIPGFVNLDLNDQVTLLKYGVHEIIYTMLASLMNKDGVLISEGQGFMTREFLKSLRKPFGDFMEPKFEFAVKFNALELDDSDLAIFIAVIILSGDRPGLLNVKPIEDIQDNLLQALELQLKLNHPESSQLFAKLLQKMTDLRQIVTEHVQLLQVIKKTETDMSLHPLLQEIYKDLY
Description: • 1. PPARγ agonist activity test Detection principle: when pM-hPPAR binds to the appropriate ligand, and is activated and binds to the GAL4DNA binding site in the plasmid pB4-RES-tk-luc, thereby initiating the expression of the downstream luciferase reporter gene. The amount of luciferase is detected to determine whether the compound to be tested is a PPAR agonist. • 2.

[6] = system: CFA-induced AIA mouse model; experiment: CFA-induced AIA mouse model, intraperitoneal injection; type: in vivo; settings: female KM mice, compared with celecoxib-10 mg/kg
Description: The pain threshold of AIA mice was tested by the hot plate method. […] A curve of the increase in pain threshold over time was plotted (panel (B) in FIG. 10), and the AUC value of the percentage increase in pain threshold was obtained (panel (C) in FIG. 10). […] Finally, the thickness of the paws of the AIA mouse model at different time points after compound injection was evaluated and compared with the thickness of the mouse paws before modeling, and the swelling reduction rate of the mouse paws was calculated.
The pain threshold of AIA mice was tested by the hot plate method. […] A curve of the increase in pain threshold over time was plotted (panel (B) in FIG. 11), and the AUC value of the percentage increase in pain threshold was obtained (panel (C) in FIG. 11). […] Finally, the thickness of the paws of the AIA mouse model at different time points after compound injection was evaluated and compared with the thickness of the mouse paws before modeling, and the swelling reduction rate of the mouse paws was calculated.

[7] = system: CFA-induced AIA mouse model; settings: C57BL/6 mice, oral gavage
chronic granuloma model = settings: rats, 20 mg/kg oral gavage once a day for 7 days (medium-dose; celecoxib group)
Description: After the animals were anesthetized by isoflurane inhalation, cotton balls of about 50 mg were buried in the groin of the rats on both sides. The surgical procedure was strictly conducted aseptically. Penicillin was injected intraperitoneally for anti-inflammatory treatment after surgery. Before administration, different drugs were prepared into a concentration of 0.5 mg/mL with pure water in each group, and different test substances were administered by oral gavage at 10 mL/kg, 1 time a day for consecutive 7 days, while the model control group was administrated with an equal volume of pure water. After the last administration, the mice were anesthetized by isoflurane inhalation and then bled, and the cotton ball granuloma was removed and weighed to calculate the degree of swelling (wet weight of cotton ball granuloma - dry weight of cotton ball).
The significant figures of the test data were rounded off and statistical analysis was conducted in accordance with SOP. The software used for statistics was SPSS22.0. Measurement data were expressed as Mean ± standard deviation (x ± s), and Leven's test was used to test normality and homogeneity of variance. If there was no statistical significance (P>0.05), statistical analysis was done using one-factor ANOVA. If ANOVA was statistically significant (P≤0.05), LSD test (parametric method) was used for comparative analysis. […]

[8] = system: L-arginine-induced acute pancreatitis model; settings: 5 mg/kg, n=5
Description: Pathological changes were studied on H&E stained pancreatic sections (FIG. 17).
Specifically, panel (A) represents edema, panel (B) represents inflammatory cells (mononuclear and polymorphonuclear cells), panel (C) represents parenchymal atrophy, and panel (D) represents the total score (edema, mononuclear cell, polymorphonuclear cell, and parenchymal atrophy) (n=5 for each group) *p<0.05, **p<0.01 vs Mod.

[9] = system: CFA-induced rheumatoid arthritis model
Description: Except for the normal group, the animals in the other groups were injected with 25 µL/mouse of CFA at the bottom of right feet. Different drugs were prepared with pure water to the corresponding concentrations before administration. 30 min after modeling, different test substances were administrated to the animals in each group by oral gavage at 20 mL/kg, 1 time on the same day. The normal control group and the model control group were given the same volume of pure water. […] On the 20th day after modeling, all model animals were regrouped according to the joint index score and administrated with 20 mL/kg by oral gavage 1 time daily for consecutive 7 days. The joint index score of each group was determined on the 3rd and 7th days after administration, and the pain threshold of the animals was tested with a hot plate instrument after the last administration.
The significant figures of the test data were rounded off and statistical analysis was conducted in accordance with SOP. The software used for statistics was SPSS22.0. Measurement data were expressed as Mean ± standard deviation (x ± s), and Leven's test was used to test normality and homogeneity of variance. If there was no statistical significance (P>0.05), statistical analysis was done using one-factor ANOVA. If ANOVA was statistically significant (P≤0.05), LSD test (parametric method) was used for comparative analysis. If variance was unequal (P≤0.05), the Kruskal-Wallis test was used. If the Kruskal-Wallis test was statistically significant (P≤0.05), Dunnett's Test (nonparametric method) was used for comparative analysis.

[10] = 30 mg/kg oral gavage (medium-dose; celecoxib group), 0.5 h after administration
[11] = 30 mg/kg oral gavage (medium-dose; celecoxib group), 2 h after administration
[12] = 30 mg/kg oral gavage (medium-dose; celecoxib group), 4 h after administration

Compound: O=C(Nc1ccc(OC(F)(F)F)c(F)c1)NC1CCC(Oc2ccc(C=C3SC(=O)NC3=O)cc2)CC1 (centres unmarked) [SP-B07, 1-((1r,4r)-4-{4-[(E)-(2,4-dioxothiazolidin-5-ylidene)methyl]phenoxy}cyclohexyl)-3-[3-fluoro-4-(trifluoromethoxy)phenyl]urea]
- fraction unbound [1]: 0.0471
- IC50 (murine sEH (MsEH)): 0.42 nM
- lowering blood glucose and improving diabetic neuropathic pain [2]: effective
- increase of the survival rate (LPS-induced sepsis model): 42.8%
- Average concentration in microsomal buffer ([3]; 0 min): 100 ng/mL
- Average concentration in microsomal buffer ([3]; 10 min): 86.26 ng/mL
- Average concentration in microsomal buffer ([3]; 60 min): 58.82 ng/mL
- Average concentration in microsomal buffer ([3]; 120 min): 57.01 ng/mL
- Average concentration in microsomal buffer ([3]; 240 min): 55.61 ng/mL
- Average concentration in microsomal buffer ([3]; 360 min): 52.33 ng/mL
- Average concentration in microsomal buffer ([3]; 720 min): 43.73 ng/mL
- half-life ([3]; half-life (t1/2) in rat liver microsomes, rat liver microsomes): 330 min
- half-life ([3]; t1/2, rat liver microsomes, table): 330 min
- IC50 [4]: 0.06 nM
- AUC(0-inf) ([5]; rat, in vivo, iv, 10 mg/kg): 16.9 µM·h
- AUC(0-t) at 8 h ([5]; rat, in vivo, iv, 10 mg/kg): 14.1 µM·h
- Cmax ([5]; rat, in vivo, iv, 10 mg/kg): 3290 nM
- Tmax ([5]; rat, in vivo, iv, 10 mg/kg): 4.98 min
- Vd ([5]; rat, in vivo, iv, 10 mg/kg): 3.71 L/kg
- clearance ([5]; rat, in vivo, iv, 10 mg/kg): 13.2 mL/min/kg
- half-life ([5]; rat, in vivo, iv, 10 mg/kg, t1/2, rats, i.v. 10 mg/kg): 115 min
- AUC(0-inf) ([5]; rat, in vivo, po, 50 mg/kg): 17.7 µM·h
- AUC(0-t) at 8 h ([5]; rat, in vivo, po, 50 mg/kg): 13.8 µM·h
- Cmax ([5]; rat, in vivo, po, 50 mg/kg): 1140 nM
- Tmax ([5]; rat, in vivo, po, 50 mg/kg): 30 min
- bioavailability ([5]; rat, in vivo, po, 50 mg/kg): 19.5%
- time at which maximum concentration was reached after intravenous injection ([5]; rats, i.v. 10 mg/kg): 2 min
- t1/2 ([5]; rats, i.v. 10 mg/kg, 10 mg/kg): 3.26 h
- EC50 (PPARγ): 1430 nM
- PPARγ (compared with Rosiglitazone, %) (PPARγ; relative to Rosiglitazone): 19.3%
- analgesic effect (percentage increase in pain threshold, hot plate method) [6]: better than that of celecoxib
- detumescence rate on mouse paws (swelling reduction rate) [6]: superior to celecoxib

Compound: Cc1ccc(-c2cc(C(F)(F)F)nn2-c2ccc(S(N)(=O)=O)cc2)cc1 [Celecoxib, celecoxib]
- time after administration at which the pain threshold began to rise [7]: 30 min
- Swelling degree (chronic granuloma model): 0.9904±0.12++
- pancreatic injury histological score [8]: 3.50±1.80
- Pain threshold in acute inflammatory state ([9]; 30 mg/kg group (medium-dose; celecoxib group), Before administration): 20.7±4.2
- Pain threshold in chronic inflammatory state ([9]; 30 mg/kg oral gavage (medium-dose; celecoxib group), once daily for 7 days, End of administration): 13.7±4.6
- Acute pain threshold increase rate of mice [9, 10]: -35.2±29.8%
- Pain threshold in acute inflammatory state [9, 10]: 13.2±6.3
- Acute pain threshold increase rate of mice ([9]; 30 mg/kg oral gavage (medium-dose; celecoxib group), 1 h after administration): -52.3±55.5%
- Acute pain threshold increase rate of mice [9, 11]: 34.52±54.1 %
- Pain threshold in acute inflammatory state [9, 11]: 23.9±5.3
- Acute pain threshold increase rate of mice [9, 12]: -11.6±32.6 %
- Pain threshold in acute inflammatory state [9, 12]: 18.7±6.0
